Values joined by “and” are separate entries in the source; they are usually repeats but may differ in a detail not shown here. Identical values can stand only once. Results filed as inconclusive are left out.
Tested on: B6C3F1 mice, colon carcinoma 38 s.c., T/C
Experiment: NCI In Vivo Anticancer Drug Screen. Data for tumor model Colon Carcinoma 38 (subcutaneous) in B6C3F1 mice
Conditions: higher = larger tumour
Description: The antitumor activity of compounds was measured in mice bearing transplantable tumors. Survival or tumor size were measured and the results are expressed as the measurement made in the treated group (T) divided by the measurement made in the vehicle treated control group (C). The tumor model used in this assay is Colon Carcinoma 38 (subcutaneous) in B6C3F1 mice

[1] = endpoint: median tumor weight (est.), dose: 50.0 mg/kg/injection, schedule: Q07DX002 (ip), vehicle: Klucel (hydroxypropylcellulose) (HPC)
[2] = endpoint: median tumor weight (est.), dose: 100.0 mg/kg/injection, schedule: Q07DX002 (ip), vehicle: Klucel (hydroxypropylcellulose) (HPC)
[3] = endpoint: median tumor weight (est.), dose: 200.0 mg/kg/injection, schedule: Q07DX002 (ip), vehicle: Klucel (hydroxypropylcellulose) (HPC)
[4] = endpoint: median tumor weight (est.), dose: 4.0 mg/kg/injection, schedule: Q07DX002 (ip), vehicle: saline
[5] = endpoint: median tumor weight (est.), dose: 8.0 mg/kg/injection, schedule: Q07DX002 (ip), vehicle: saline
[6] = endpoint: median tumor weight (est.), dose: 16.0 mg/kg/injection, schedule: Q07DX002 (ip), vehicle: saline
[7] = endpoint: median tumor weight (est.), dose: 32.0 mg/kg/injection, schedule: Q07DX002 (ip), vehicle: saline
[8] = endpoint: median tumor weight (est.), dose: 64.0 mg/kg/injection, schedule: Q07DX002 (ip), vehicle: saline
[9] = endpoint: median tumor weight (est.), dose: 50.0 mg/kg/injection, schedule: Q07DX002 (ip), vehicle: saline with Tween-80
[10] = endpoint: median tumor weight (est.), dose: 200.0 mg/kg/injection, schedule: Q07DX002 (ip), vehicle: saline with Tween-80
[11] = endpoint: median tumor weight (est.), dose: 400.0 mg/kg/injection, schedule: Q07DX002 (ip), vehicle: saline with Tween-80
[12] = endpoint: median tumor weight (est.), dose: 12.5 mg/kg/injection, schedule: Q07DX002 (ip), vehicle: saline with Tween-80
[13] = endpoint: median tumor weight (est.), dose: 25.0 mg/kg/injection, schedule: Q07DX002 (ip), vehicle: saline with Tween-80

In the case of `O=c1[nH]cnc2nc(/N=N/SCCO)[nH]c12`, the T/C [1] is reported as 115 % of control, the T/C [2] is reported as 114 % of control and the T/C [3] is reported as 101 % of control.

With `CN(C)c1ccc2c(SCC(=O)OCC(=O)[C@@]3(O)CC[C@H]4[C@@H]5CCC6=CC(=O)C=C[C@]6(C)[C@H]5C(=O)C[C@@]43C)c3ccc(N(C)C)cc3nc2c1` the T/C [1] was 105 % of control, the T/C [2] was 78 % of control and the T/C [3] was 81 % of control. The T/C (endpoint: median tumor weight (est.), dose: 400.0 mg/kg/injection, schedule: Q07DX002 (ip), vehicle: Klucel (hydroxypropylcellulose) (HPC)) was 82 % of control and the T/C (endpoint: median tumor weight (est.), dose: 800.0 mg/kg/injection, schedule: Q07DX002 (ip), vehicle: Klucel (hydroxypropylcellulose) (HPC)) was 16 % of control.

For `Cc1c(N)nc([C@H](CC(N)=O)NC[C@H](N)C(N)=O)nc1C(=O)N[C@H](C(=O)N[C@H](C)[C@@H](O)CC(=O)N[C@H](C(=O)NC(O[C@@H]1O[C@@H](C)[C@@H](N)[C@@H](O)[C@H]1O)C(O)c1nc(-c2nc(C(=O)NCCCCN)cs2)cs1)[C@@H](C)O)[C@@H](O[C@@H]1O[C@@H](CO)[C@@H](O)[C@H](O)[C@@H]1O[C@H]1O[C@H](CO)[C@@H](O)[C@H](OC(N)=O)[C@@H]1O)c1c[nH]cn1` (stereo not given in full), the T/C [4] was 54 % of control, the T/C [5] was 35 % of control and the T/C [6] was 13 % of control. For the same molecule, the T/C [7] was 25 % of control and the T/C [8] was 9 % of control.

In the case of `C[n+]1c(-c2cccc(OCCOCCOc3cccc(-c4c5cc(N)ccc5c5ccc(N)cc5[n+]4C)c3)c2)c2cc(N)ccc2c2ccc(N)cc21`, the T/C (endpoint: median tumor weight (est.), dose: 4.0 mg/kg/injection, schedule: Q07DX002 (ip), vehicle: water) is reported as 71 % of control, the T/C (endpoint: median tumor weight (est.), dose: 8.0 mg/kg/injection, schedule: Q07DX002 (ip), vehicle: water) is reported as 54 % of control and the T/C (endpoint: median tumor weight (est.), dose: 16.0 mg/kg/injection, schedule: Q07DX002 (ip), vehicle: water) is reported as 85 % of control and 66 % of control. The T/C (endpoint: median tumor weight (est.), dose: 64.0 mg/kg/injection, schedule: Q07DX002 (ip), vehicle: water) was 33 % of control and 52 % of control.

With `C#CCNC1=C(C)C(=O)C2=C(C1=O)[C@H](COC(N)=O)[C@]1(OC)[C@@H]3N[C@@H]3CN21` the T/C (endpoint: median tumor weight (est.), dose: 1.5 mg/kg/injection, schedule: Q07DX002 (ip), vehicle: distilled water + Tween-80) was 50 % of control, the T/C (endpoint: median tumor weight (est.), dose: 3.0 mg/kg/injection, schedule: Q07DX002 (ip), vehicle: distilled water + Tween-80) was 60 % of control and the T/C (endpoint: median tumor weight (est.), dose: 6.0 mg/kg/injection, schedule: Q07DX002 (ip), vehicle: distilled water + Tween-80) was 36 % of control. The T/C (endpoint: median tumor weight (est.), dose: 12.0 mg/kg/injection, schedule: Q07DX002 (ip), vehicle: distilled water + Tween-80) was 9 % of control.

In the case of `Cc1c(N)nc(C(CC(N)=O)NCC(N)C(N)=O)nc1C(=O)NC(C(=O)NC(C)C(O)CC(=O)NC(C(=O)NC(OC1OC(C)C(N)C(O)C1O)C(O)c1nc(-c2nc(C(=O)NCCCC(N)CC(=O)NCCCNCCCCN)cs2)cs1)C(C)O)C(OC1OC(CO)C(O)C(O)C1OC1OC(CO)C(O)C(OC(N)=O)C1O)c1cnc[nH]1` (stereo not given), the T/C [4] is reported as 36 % of control, the T/C [5] is reported as 15 % of control and the T/C [6] is reported as 8 % of control. The T/C [7] was 1 % of control.

`Cc1c(N)nc([C@H](CC(N)=O)NC[C@H](N)C(N)=O)nc1C(=O)N[C@H](C(=O)N[C@H](C)[C@@H](O)[C@H](C)C(=O)N[C@H](C(=O)NCCc1nc(-c2nc(C(=O)NCCC[S+](C)C)cs2)cs1)[C@@H](C)O)C(OC1OC(CO)C(O)C(O)C1OC1OC(CO)C(O)C(OC(N)=O)C1O)c1cnc[nH]1` (stereo not given in full) was tested, and the T/C [6] was 26 % of control, the T/C [7] was 14 % of control and the T/C [8] was 35 % of control. The T/C (endpoint: median tumor weight (est.), dose: 128.0 mg/kg/injection, schedule: Q07DX002 (ip), vehicle: saline) was 9 % of control.

For `COc1ccc2c(ccc3oc([N+](=O)[O-])cc32)c1`, the T/C [9] was 101 % of control, the T/C (endpoint: median tumor weight (est.), dose: 100.0 mg/kg/injection, schedule: Q07DX002 (ip), vehicle: saline with Tween-80) was 116 % of control and the T/C [10] was 90 % of control. For the same molecule, the T/C [11] was 92 % of control.

`O=C1C2CC(Cl)C(SSC3CC4C(=O)N(SC(Cl)(Cl)C(Cl)Cl)C(=O)C4CC3Cl)CC2C(=O)N1SC(Cl)(Cl)C(Cl)Cl` (stereo not given) was tested, and the T/C (endpoint: median tumor weight (est.), dose: 25.0 mg/kg/injection, schedule: Q07DX002 (ip), vehicle: Klucel (hydroxypropylcellulose) (HPC)) was 91 % of control, the T/C [1] was 66 % of control and the T/C [2] was 74 % of control.

With `Cc1ccoc1` the T/C (endpoint: median tumor weight (est.), dose: 16.8 mg/kg/injection, schedule: Q03HX006 (ip), vehicle: saline with Tween-80) was 75 % of control, the T/C (endpoint: median tumor weight (est.), dose: 33.33 mg/kg/injection, schedule: Q03HX006 (ip), vehicle: saline with Tween-80) was 109 % of control and the T/C (endpoint: median tumor weight (est.), dose: 66.66 mg/kg/injection, schedule: Q03HX006 (ip), vehicle: saline with Tween-80) was 114 % of control. For the same molecule, the T/C (endpoint: median tumor weight (est.), dose: 133.33 mg/kg/injection, schedule: Q03HX006 (ip), vehicle: saline with Tween-80) was 108 % of control.

In the case of `CC1CC(C)CC(C)C(O)/C(C#N)=C/C=C/CC(C2CCCC2C(=O)O)OC(=O)CC(O)C(C)C1` (stereo not given), the T/C (endpoint: median tumor weight (est.), dose: 4.0 mg/kg/injection, schedule: Q07DX002 (ip), vehicle: Klucel (hydroxypropylcellulose) (HPC)) is reported as 83 % of control, the T/C (endpoint: median tumor weight (est.), dose: 8.0 mg/kg/injection, schedule: Q07DX002 (ip), vehicle: Klucel (hydroxypropylcellulose) (HPC)) is reported as 81 % of control and the T/C (endpoint: median tumor weight (est.), dose: 16.0 mg/kg/injection, schedule: Q07DX002 (ip), vehicle: Klucel (hydroxypropylcellulose) (HPC)) is reported as 108 % of control. The T/C (endpoint: median tumor weight (est.), dose: 32.0 mg/kg/injection, schedule: Q07DX002 (ip), vehicle: Klucel (hydroxypropylcellulose) (HPC)) was 115 % of control.

`O=c1[nH]cccc1O` was tested, and the T/C (endpoint: median tumor weight (est.), dose: 62.5 mg/kg/injection, schedule: Q07DX002 (ip), vehicle: saline with Tween-80) was 91 % of control, the T/C (endpoint: median tumor weight (est.), dose: 125.0 mg/kg/injection, schedule: Q07DX002 (ip), vehicle: saline with Tween-80) was 90 % of control and 97 % of control and the T/C (endpoint: median tumor weight (est.), dose: 250.0 mg/kg/injection, schedule: Q07DX002 (ip), vehicle: saline with Tween-80) was 90 % of control and 95 % of control. For the same molecule, the T/C (endpoint: median tumor weight (est.), dose: 500.0 mg/kg/injection, schedule: Q07DX002 (ip), vehicle: saline with Tween-80) was 95 % of control and 70 % of control and the T/C (endpoint: median tumor weight (est.), dose: 1000.0 mg/kg/injection, schedule: Q07DX002 (ip), vehicle: saline with Tween-80) was 74 % of control.

In the case of `CSc1ncnc2c1ncn2C1OC(CO)C(O)C1O` (stereo not given), the T/C (endpoint: median tumor weight (est.), dose: 25.0 mg/kg/injection, schedule: Q07DX002 (ip), vehicle: saline + alcohol) is reported as 98 % of control, the T/C (endpoint: median tumor weight (est.), dose: 50.0 mg/kg/injection, schedule: Q07DX002 (ip), vehicle: saline + alcohol) is reported as 51 % of control and the T/C (endpoint: median tumor weight (est.), dose: 100.0 mg/kg/injection, schedule: Q07DX002 (ip), vehicle: saline + alcohol) is reported as 49 % of control. For the same molecule, the T/C (endpoint: median tumor weight (est.), dose: 200.0 mg/kg/injection, schedule: Q07DX002 (ip), vehicle: saline + alcohol) was 32 % of control.

In the case of `NC(=O)c1ccc[n+](Cc2c(Cl)cccc2Cl)c1`, the T/C (endpoint: median tumor weight (est.), dose: 25.0 mg/kg/injection, schedule: Q07DX002 (ip), vehicle: saline) is reported as 86 % of control and the T/C (endpoint: median tumor weight (est.), dose: 50.0 mg/kg/injection, schedule: Q07DX002 (ip), vehicle: saline) is reported as 94 % of control.

`O=S(=O)([O-])c1ccc(-c2c3nc(c(-c4ccc(S(=O)(=O)[O-])cc4)c4ccc([n-]4)c(-c4ccc(S(=O)(=O)[O-])cc4)c4nc(c(-c5ccc(S(=O)(=O)[O-])cc5)c5ccc2[n-]5)C=C4)C=C3)cc1.[Mn+3].[Na+]` was tested, and the T/C (endpoint: median tumor weight change, dose: 226.9 mg/kg/injection, schedule: Q07DX002 (iv), vehicle: water) was 67 % of control, the T/C (endpoint: median tumor weight change, dose: 340.9 mg/kg/injection, schedule: Q07DX002 (iv), vehicle: water) was 77 % of control and the T/C (endpoint: median tumor weight change, dose: 515.0 mg/kg/injection, schedule: Q07DX002 (iv), vehicle: water) was 110 % of control.

For `Nc1nc(-c2ccccc2)c(Br)c(=O)[nH]1`, the T/C [10] was 115 % of control and the T/C [11] was 87 % of control.

`CN(C)CCCNc1c2ccccc2nc2cccc([N+](=O)[O-])c12` was tested, and the T/C (endpoint: median tumor weight (est.), dose: 0.03 mg/kg/injection, schedule: Q07DX002 (ip), vehicle: saline) was 104 % of control and the T/C (endpoint: median tumor weight (est.), dose: 0.06 mg/kg/injection, schedule: Q07DX002 (ip), vehicle: saline) was 79 % of control and 221 % of control.

In the case of `O=c1c(O)c(-c2cc(O)c(O)c(O)c2)oc2cc(O)cc(O)c12`, the T/C (endpoint: median tumor weight (est.), dose: 600.0 mg/kg/injection, schedule: Q07DX002 (ip), vehicle: saline with Tween-80) is reported as 95 % of control.

In the case of `CC1c2ccccc2CC(CCN(C)C)c2ccccc21` (stereo not given), the T/C [12] is reported as 164 % of control, the T/C [13] is reported as 84 % of control and the T/C [9] is reported as 108 % of control. For the same molecule, the T/C [10] was 69 % of control.

`O=C(CCCCCCC(=O)ON1C(=O)CCC1=O)ON1C(=O)CCC1=O` was tested, and the T/C [12] was 74 % of control, the T/C [13] was 69 % of control and the T/C [10] was 108 % of control.
